pEC50, pIC50: −log10 of the molar value.
How the values were obtained:
Bac-NA^WT = Bac-NA^WT (Influenza A virus, UniProt Q6DPL2); type: biochemical
A/WSN/33 = type: cell-based, influenza A/WSN/33 (H1N1)
[1] = target: NA of influenza NIBRG14 (H5N1) (Influenza A virus, UniProt Q6DPL2); type: biochemical
A/WSN/33 (H1N1) = type: cell-based, influenza A/WSN/33 (H1N1)
[2] = system: influenza A/WSN/33 (H1N1); experiment: microbe, parasite or virus in culture; type: cell-based; details: MDCK, read-out: EC50 for viral plaque formation
A/Udorn/72 (H3N2) = experiment: microbe, parasite or virus in culture; type: cell-based, influenza A/Udorn/72 (H3N2); details: Influenza A virus, H3N2, MDCK, read-out: EC50 for viral plaque formation

Sequence of Bac-NA^WT (Q6DPL2 63-449 limits assumed): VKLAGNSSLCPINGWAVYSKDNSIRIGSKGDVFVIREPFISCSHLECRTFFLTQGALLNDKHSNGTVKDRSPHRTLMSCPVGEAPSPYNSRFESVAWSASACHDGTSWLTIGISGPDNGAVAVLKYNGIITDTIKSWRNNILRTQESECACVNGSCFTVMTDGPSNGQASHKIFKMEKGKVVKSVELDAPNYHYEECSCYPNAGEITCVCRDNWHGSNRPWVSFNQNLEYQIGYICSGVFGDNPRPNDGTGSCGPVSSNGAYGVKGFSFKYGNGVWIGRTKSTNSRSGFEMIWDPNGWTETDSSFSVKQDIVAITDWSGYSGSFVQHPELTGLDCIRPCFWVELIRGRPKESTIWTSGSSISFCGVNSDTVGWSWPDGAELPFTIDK
Sequence of NA of influenza NIBRG14 (H5N1) (Q6DPL2 whole entry, looked up): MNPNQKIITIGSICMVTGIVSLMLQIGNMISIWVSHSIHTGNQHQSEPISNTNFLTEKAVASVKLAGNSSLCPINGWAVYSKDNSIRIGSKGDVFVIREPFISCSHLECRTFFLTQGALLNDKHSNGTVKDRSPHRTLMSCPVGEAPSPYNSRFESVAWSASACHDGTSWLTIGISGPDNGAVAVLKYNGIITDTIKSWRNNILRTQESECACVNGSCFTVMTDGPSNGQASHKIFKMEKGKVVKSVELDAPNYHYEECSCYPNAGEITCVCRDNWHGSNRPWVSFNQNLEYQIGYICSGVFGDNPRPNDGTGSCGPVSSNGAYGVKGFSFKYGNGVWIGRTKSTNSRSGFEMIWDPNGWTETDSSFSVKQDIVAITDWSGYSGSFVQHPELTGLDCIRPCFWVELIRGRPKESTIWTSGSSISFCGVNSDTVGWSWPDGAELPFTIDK

Nc1c(S(=O)(=O)O)cc(Nc2cccc(S(=O)(=O)CCOS(=O)(=O)O)c2)c2c1C(=O)c1ccccc1C2=O [RB19, remazol brilliant blue R]
pIC50 (Bac-NA^WT): 5.47
influenza-induced cytopathic effect (A/WSN/33): inhibited the influenza-induced cytopathic effect
pIC50 [1]: 5.24
virus yields (fluorogenic signal of NA activity) (A/WSN/33 (H1N1)): dramatically reduced virus yields
pEC50 [2]: 5.57
pEC50 (A/Udorn/72 (H3N2)): 5.55

Reference: patent US20140194392A1 (priority 2013, published 2014)
